According to US11591336B2 (Relay Therapeutics, Inc., priority 2017, dated 2023):
Where a name gives a salt, the structure may show the parent alone.

Biological target: SHP2 (Homo sapiens (Human), UniProt Q06124)
Assay: SHP2 Allosteric Inhibition Assay (DiFMUP prompt fluorescence)
Assay type: biochemical
Settings: 0.25 nM SHP2 activated with 0.5 μM peptide IRS1_pY1172(dPEG8)pY1222; substrate DiFMUP 100 μM; 25° C.

SHP2, sequence (Q06124 whole entry): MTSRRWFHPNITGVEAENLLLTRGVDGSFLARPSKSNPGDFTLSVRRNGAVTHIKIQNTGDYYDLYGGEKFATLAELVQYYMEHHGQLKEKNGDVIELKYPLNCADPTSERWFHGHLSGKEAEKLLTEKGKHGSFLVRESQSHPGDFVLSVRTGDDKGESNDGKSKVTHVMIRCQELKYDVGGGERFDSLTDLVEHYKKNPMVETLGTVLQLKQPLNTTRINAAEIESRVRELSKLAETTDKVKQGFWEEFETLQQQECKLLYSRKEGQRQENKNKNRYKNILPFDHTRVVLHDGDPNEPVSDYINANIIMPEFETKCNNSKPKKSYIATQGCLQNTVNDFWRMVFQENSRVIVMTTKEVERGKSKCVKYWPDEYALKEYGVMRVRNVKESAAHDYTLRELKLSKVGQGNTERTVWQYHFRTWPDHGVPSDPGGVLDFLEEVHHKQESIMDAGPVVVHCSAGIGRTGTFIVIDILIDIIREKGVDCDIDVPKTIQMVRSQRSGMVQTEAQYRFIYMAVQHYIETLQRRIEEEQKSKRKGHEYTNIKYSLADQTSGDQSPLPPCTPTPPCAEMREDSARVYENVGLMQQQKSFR

SMILES: CN=[S@](C)(=O)c1cccc2c1CCCN2c1n[nH]c2nc(N3CCC4(CC3)CO[C@@H](C)[C@H]4N)cnc12 [Compound 419]
- IC50: < 1 µM

SMILES: Cc1ccnc2c1N(c1n[nH]c3nc(N4CCC(C)(CN)CC4)cnc13)CCC2 [Compound 90]
- IC50: 1 to 10 µM

SMILES: COCCn1cc(-c2ccc3c(n2)CCCN3c2n[nH]c3nc(N4CCC5(CC4)CO[C@@H](C)[C@H]5N)cnc23)cn1 [Compound 333, (3S,4S)-8-(3-{6-[1-(2-methoxyethyl)-1H-pyrazol-4-yl]-1,2,3,4-tetrahydro-1,5-naphthyridin-1-yl}-1H-pyrazolo[3,4-b]pyrazin-6-yl)-3-methyl-2-oxa-8-azaspiro[4.5]decan-4-amine]
- IC50: < 1 µM

SMILES: C[C@@H]1OCC2(CCN(c3cnc4c(N5CCCc6nc(-c7ccn(C)n7)ccc65)n[nH]c4n3)CC2)[C@@H]1N [Compound 280, (3S,4S)-3-methyl-8-{3-[6-(1-methyl-1H-pyrazol-3-yl)-1,2,3,4-tetrahydro-1,5-naphthyridin-1-yl]-1H-pyrazolo[3,4-b]pyrazin-6-yl}-2-oxa-8-azaspiro[4.5]decan-4-amine]
- IC50: < 1 µM

SMILES: CNC(=O)c1cccc2c1CCCN2c1n[nH]c2nc(N3CCC(C)(CN)CC3)cnc12 [Compound 79, 1-(6-(4-(Aminomethyl)-4-methylpiperidin-1-yl)-1H-pyrazolo[3,4-b]pyrazin-3-yl)-N-methyl-1,2,3,4-tetrahydroquinoline-5-carboxamide]
- IC50: < 1 µM

SMILES: C[C@@H]1OCC2(CCN(c3cnc4c(N5CCCc6c(NS(C)(=O)=O)cccc65)n[nH]c4n3)CC2)[C@@H]1N [Compound 343, N-(1-{6-[(3S,4S)-4-amino-3-methyl-2-oxa-8-azaspiro[4.5]decan-8-yl]-1H-pyrazolo[3,4-b]pyrazin-3-yl}-1,2,3,4-tetrahydroquinolin-5-yl)methanesulfonamide]
- IC50: < 1 µM

SMILES: C[C@@H]1OCC2(CCN(c3cnc4c(N5CCCc6c5ccc(C#N)c6CC#N)n[nH]c4n3)CC2)[C@@H]1N [Compound 528]
- IC50: < 1 µM

SMILES: C[C@@H]1CCN(c2n[nH]c3nc(N4CCC5(CC4)CO[C@@H](C)[C@H]5N)cnc23)c2ccc(-c3nnc[nH]3)nc21 [Compound 452, dihydrochloride]
- IC50: < 1 µM

SMILES: CC1(N)CCN(c2cnc3c(N4CCCc5c4ccnc5N)n[nH]c3n2)CC1 [Compound 42, 1-(6-(4-amino-4-methylpiperidin-1-yl)-1H-pyrazolo[3,4-b]pyrazin-3-yl)-1,2,3,4-tetrahydro-1,6-naphthyridin-5-amine]
- IC50: 1 to 10 µM

SMILES: CC1CCN(c2n[nH]c3nc(N4CCC(CN)(CC(=O)O)CC4)cnc23)c2cccnc21 (centres unmarked) [Compound 171, 2-[4-(aminomethyl)-1-[3-(4-methyl-1,2,3,4-tetrahydro-1,5-naphthyridin-1-yl)-1H-pyrazolo[3,4-b]pyrazin-6-yl]piperidin-4-yl]acetic acid]
- IC50: 1 to 10 µM

SMILES: CCN1CCN(c2n[nH]c3nc(N4CCC5(CC4)CO[C@@H](C)[C@H]5N)cnc23)c2ccc(C#N)cc21 [Compound 405]
- IC50: < 1 µM

SMILES: C[C@@H]1OCC2(CCN(c3cnc4c(N5CCCc6nc(-c7ccnnc7)ccc65)n[nH]c4n3)CC2)[C@@H]1N [Compound 305]
- IC50: < 1 µM

SMILES: C[C@@H]1OCC2(CCN(c3cnc4c(N5CCCc6nc(Oc7cnn(C)c7)ccc65)n[nH]c4n3)CC2)[C@@H]1N [Compound 314]
- IC50: < 1 µM

SMILES: C[C@@H]1OCC2(CCN(c3cnc4c(N5CCCc6ncsc65)n[nH]c4n3)CC2)[C@@H]1N [Compound 531]
- IC50: < 1 µM

SMILES: CC1(N)CCN(c2cnc3c(Sc4ccncc4)n[nH]c3n2)CC1 [Compound 486, 4-methyl-1-(3-(pyridin-4-ylthio)-1H-pyrazolo[3,4-b]pyrazin-6-yl)piperidin-4-amine]
- IC50: < 1 µM

SMILES: NS(=O)(=O)C1CCCN(c2cnc3c(N4CCCc5ncccc54)n[nH]c3n2)C1 (centres unmarked) [Compound 137]
- IC50: < 1 µM

SMILES: C[C@@H]1OCC2(CCN(c3cnc4c(N5CC[C@@H](C(F)F)c6cc(C#N)ccc65)n[nH]c4n3)CC2)[C@@H]1N [Compound 326]
- IC50: < 1 µM

SMILES: C[C@@H]1OCC2(CCN(c3cnc4c(N5CC[C@H](C)c6cc(C#N)ccc65)n[nH]c4n3)CC2)[C@@H]1N [Compound 220]
- IC50: < 1 µM

SMILES: C[C@@H]1OCC2(CCN(c3cnc4c(N5CCc6ccc(-c7cnn(C)c7)cc6C5)n[nH]c4n3)CC2)[C@@H]1N [Compound 337]
- IC50: < 1 µM

SMILES: Cc1ccc2c(c1S(C)(=O)=O)CCCN2c1n[nH]c2nc(N3CCC4(CC3)CO[C@@H](C)[C@H]4N)cnc12 [Compound 345]
- IC50: < 1 µM

SMILES: COC(=O)Cc1cccc2c1CCCN2c1n[nH]c2nc(N3CCC4(CC3)CO[C@@H](C)[C@H]4N)cnc12 [Compound 461]
- IC50: < 1 µM

SMILES: CC1(N)CCN(c2cnc3c(N4CCCc5cc(C(N)=O)ccc54)n[nH]c3n2)CC1 [Compound 54, 1-(6-(4-amino-4-methylpiperidin-1-yl)-1H-pyrazolo[3,4-b]pyrazin-3-yl)-1,2,3,4-tetrahydroquinoline-6-carboxamide]
- IC50: < 1 µM

SMILES: NC1CCCC12CCN(c1cnc3c(Sc4cccnc4C(F)(F)F)n[nH]c3n1)CC2 (stereo in doubt) [Compound 476, (S)-8-(3-((2-(trifluoromethyl)pyridin-3-yl)thio)-1H-pyrazolo[3,4-b]pyrazin-6-yl)8-azaspiro[4.5]decan-1-amine]
- IC50: < 1 µM

SMILES: C[C@@H]1OCC2(CCN(c3cnc4c(N5CCCc6nc(-c7cc[nH]n7)ccc65)n[nH]c4n3)CC2)[C@@H]1N [Compound 254, (3S,4S)-8-(3-(6-(1H-pyrazol-3-yl)-3,4-dihydro-1,5-naphthyridin-1(2H)-yl)-1H-pyrazolo[3,4-b]pyrazin-6-yl)-3-methyl-2-oxa-8-azaspiro[4.5]decan-4-amine]
- IC50: < 1 µM

SMILES: CC1(CN)CCN(c2cnc3c(N4CCCc5nc(N)ccc54)n[nH]c3n2)CC1 [Compound 51, 5-(6-(4-(aminomethyl)-4-methylpiperidin-1-yl)-1H-pyrazolo[3,4-b]pyrazin-3-yl)-5,6,7,8-tetrahydro-1,5-naphthyridin-2-amine]
- IC50: < 1 µM

SMILES: CC1(N)CCN(c2cnc3c(N4CCC(=O)c5ccccc54)n[nH]c3n2)CC1 [Compound 32]
- IC50: < 1 µM

SMILES: Cn1nc(Oc2ccnc(Cl)c2Cl)c2ncc(N3CCC(C)(CN)CC3)nc21 [Compound 501, (1-(3-((2,3-dichloropyridin-4-yl)oxy)-1-methyl-1H-pyrazolo[3,4-b]pyrazin-6-yl)-4-methylpiperidin-4-yl)methanamine]
- IC50: ≥ 10 µM

SMILES: CC1(CN)CCN(c2cnc3c(N4CCCc5c4ccc(C#N)c5C4CC4)n[nH]c3n2)CC1 [Compound 122]
- IC50: < 1 µM

SMILES: C[C@@H]1OCC2(CCN(c3cnc4c(N5CCc6cc(C#N)ccc6C5)n[nH]c4n3)CC2)[C@@H]1N [Compound 273]
- IC50: < 1 µM

SMILES: C[C@@H]1CCN(c2n[nH]c3nc(N4CCC5(CC4)CO[C@@H](C)[C@H]5N)cnc23)c2ccc(C(=O)N(C)C)nc21 [Compound 347, (8R)-5-{6-[(3S,4S)-4-amino-3-methyl-2-oxa-8-azaspiro[4.5]decan-8-yl]-1H-pyrazolo[3,4-b]pyrazin-3-yl}-N,N,8-trimethyl-5,6,7,8-tetrahydro-1,5-naphthyridine-2-carboxamide]
- IC50: < 1 µM

SMILES: C[C@@H]1OCC2(CCN(c3cnc4c(N5CCN(CCS(C)(=O)=O)c6cc(C#N)ccc65)n[nH]c4n3)CC2)[C@@H]1N [Compound 408]
- IC50: < 1 µM

SMILES: Cn1nc(Sc2ccncc2)c2ncc(N3CCC(C)(N)CC3)nc21 [Cmpd 487]
- IC50: ≥ 10 µM
